Experiment: Human HepG2 cell viability assay in 384 well format
Type: toxicity, cell-based
Parameters: dose 125 nL, time 70.5 hour; concentration not given beside the values
Settings: HepG2 cells, read-out: Inhibition

SMILES	cytotoxicity at 70.5 h
O=C(COc1ccc(C(F)(F)F)cc1)N1CCOCC1c1ncon1 (configuration not stated)	-6%
O=S1(=O)CCC(CNS(=O)(=O)N2CCc3ccccc3C2)C1 (configuration not stated)	1.82%
COc1ccc(C(C)Nc2ncnc3c2NC(=O)CN3)cc1 (configuration not stated)	-14.1%
CN(C)CC(=O)N1CCc2ncnc(-c3ccoc3)c2CC1	-0.0529%
CC(C)C1CN(C(=O)c2ccccc2)CCS1 (configuration not stated)	2.34%
O=C(COc1ccc2c(c1)CCC2)NS(=O)(=O)c1cccnc1	-10.3%
CCc1nc(C2CCCN2Cc2nccn2CC(F)(F)F)no1 (configuration not stated)	1.64%
O=C(NC1CCN(CC2CC2)C1)N1CCC(OC2CCCCC2)CC1 (configuration not stated)	14.5%
Cc1ccc(-n2nc3n(c2=O)CCN(C(=O)c2ccc(Cl)cc2)C3)cc1	-10.2%
O=S(=O)(NC1CCC2(CC1)OCCO2)c1cccc(Br)c1	12%
COCCCNC(=O)NCc1cccn1Cc1ccccc1C	-20.3%
COC(=O)C(c1cc(F)ccc1F)N(C)C(=O)c1csnn1 (configuration not stated)	7.84%
Cn1c(N2CCOCC2)nc2cc(C(=O)NCc3cccnc3)ccc21	-9.04%
CS(=O)(=O)c1ccc(NC(=O)CSc2ccc3c(c2)CCC3)cc1	1.38%
COc1cc(C)cc(-c2nc3c([nH]2)CCNC3)c1OC	9.79%
O=S(=O)(Cc1ccccc1F)NCCN1CCOCC1	-2.45%
Cn1cccc1C(=O)NS(=O)(=O)c1cnn(-c2ccccc2F)c1	11.6%
O=C(NCC1CC1)[C@H]1C[C@H]2OCC[C@H]2N(Cc2ccoc2)C1	22.9%
COc1cccc(OCC2CCCN(C(=O)c3ncc(F)cc3F)C2)c1 (configuration not stated)	1.3%
CC(CO)NC(=O)c1ccc(NCc2cc(C#N)ccc2F)cc1 (configuration not stated)	-0.552%
O=C1CNc2ncnc(Nc3cnn(Cc4ccccc4F)c3)c2N1	27.9%
C[C@H]1C(=O)NC[C@H]2CN(CCc3ccccc3)C[C@H]21	-9.77%
O=S1(=O)C[C@@H]2[C@H](C1)N(Cc1ncc[nH]1)CCN2CC1CC1	-5.56%

SMILES	cytotoxicity at 70.5 h
CC(NCc1ccccc1CN1CCCC1=O)c1ccc(C#N)cc1 (configuration not stated)	4.5%
CS(=O)(=O)N[C@H]1CN(C(=O)CCc2ccco2)C[C@@H]1C1CC1	19.3%
CN(C)C(=O)CN1CCC2(CCCN(Cc3ccoc3)C2)C1=O (configuration not stated)	-13.2%
CC(C)C1CN(c2cccc(C#N)n2)CCCN1CC1CC1 (configuration not stated)	-11.5%
CN(C)C(=O)[C@@H]1C[C@@H]2[C@@H](CCN2Cc2nccs2)O1	-5.24%
Cc1cc2nccc(C3CCCN(C(=O)c4ccccc4F)C3)n2n1 (configuration not stated)	-1.93%
Cn1cnnc1CCC(=O)N1CCCC(OCc2cccnc2)C1 (configuration not stated)	-0.989%
CC(CN1CCOCC1)NC(=O)c1cc(Cl)c2c(c1)OCCO2 (configuration not stated)	0.172%
CSCC[C@H](NC(=O)Cn1ccc2ccc(Cl)cc21)C(=O)O	-16.7%
COc1cc(CN(C)C(=O)NCc2ccccn2)ccc1SC	15.9%
Cc1ncc(C(=O)N2C[C@H](CO)C[C@H](CN3CCOCC3)C2)c(=O)[nH]1	3.07%
COc1cccc(CNCc2ccc(F)c(Cl)c2)c1O	27%
Cc1ccc2nc(C(=O)N(C)[C@@H]3CC[C@@H](N4CCCC4)[C@@H]3O)cn2c1	-3.38%
CC(NC(=O)NCCCN1CCc2ccccc2C1)c1nncn1C (configuration not stated)	7.19%
Cc1nnc([C@H]2C[C@@H]3CCN(Cc4ccc(C)o4)C[C@H]3O2)[nH]1	-7.28%
COCCS(=O)(=O)NC(=O)c1nnn(-c2ccc(F)cc2)c1C1CC1	2%
COc1cccc(Cn2c(=O)n(C)c(=O)c3sccc32)c1	0.75%
OC1(CNCCc2nc(Cc3ccccc3)no2)CNCCOC1 (configuration not stated)	0.264%
CN(C)c1ncccc1NC(=O)COCC1CC1	-9.25%
CS(=O)(=O)NCc1nnc2n1CCN(Cc1nccs1)C2	5.64%
CC1CCCCN1C(=O)COc1nc(Cc2ccc(F)cc2)no1 (configuration not stated)	-6.78%
COC(=O)CC(c1ccc(OC)c(OC)c1)c1oc(C)cc(=O)c1O (configuration not stated)	5.4%
COCc1nc(C(=O)N2CCCCC2Cn2cccn2)cs1 (configuration not stated)	-7.2%

SMILES	cytotoxicity at 70.5 h
CC1CCN(CC(O)CN2CCn3c(nnc3C3CC3)C2)CC1 (configuration not stated)	35.7%
Cc1cc(F)ccc1C(=O)N1C[C@@H]2COC[C@]2(COCC2CC2)C1	-10.8%
CN(C)C(=O)COc1ccccc1CNC1CCc2ncnn2C1 (configuration not stated)	-6.71%
CC(C)CCS(=O)(=O)CC(=O)N1CCCC1c1cnn(C)c1 (configuration not stated)	-5.18%
O=C(O)CC[C@@H]1CN(c2ncnc3[nH]ccc23)CC[C@@H]1N1CCOCC1	-4.6%
CN1CCc2nc(N(C)C)nc(N3CCC(O)CC3)c2C1	-9.46%
Cc1ccc(OC2CCN(S(=O)(=O)N(C)C)CC2)nc1	-12.1%
O=C1N(c2cccc(Cl)c2)Cc2nc(=O)[nH]n21	-3.18%
COc1ccc(CCNC2CCCN(Cc3noc(C)n3)C2)cc1 (configuration not stated)	-14%
Cc1cc(CN2CCC3(CC2)CC(Nc2ncccn2)CO3)nn1C (configuration not stated)	-35.4%
Cc1cc(C(=O)N2C[C@@H]3[C@@H](C2)OCC(=O)N3CC2CC2)no1	-13.6%
O=C(NCC1CCOC1)c1csc(-c2ccc(F)cc2)n1 (configuration not stated)	-6.03%
O=C(NC1CCN(CC2CC2)C1)c1ccc(N2CCC(O)CC2)cc1 (configuration not stated)	-7.24%
Cc1cn2nc(N3CCCC3C(=O)N3CCOCC3)sc2n1 (configuration not stated)	-15.3%
N#Cc1cc(S(N)(=O)=O)ccc1N1CCN(c2ccccc2)CC1	1.86%
CC(C)CN(Cc1ccc(O)c(C(=O)O)c1)Cc1ccccn1	5.47%
Cc1ccc(CN2Cc3nnn(C)c3C(COCc3ccccc3)C2)s1 (configuration not stated)	4.74%
CCn1nc(C)c(CN(CCOC)C(=O)c2ccc(=O)[nH]n2)c1C	-4.87%
Cc1ccc(CN2CC[C@H]3[C@H]2CCN3S(=O)(=O)C2CC2)s1	-5.12%
O=C(CCn1cncn1)NCC(c1ccco1)N1CCCCC1 (configuration not stated)	7%
COCCCC1CCCN(C(=O)CCc2csc(N)n2)C1 (configuration not stated)	-11.8%
CC(C)N(CC(N)=O)Cc1csc(-c2ncccn2)n1	-2.81%
Cc1cccc(-n2nc(CC(C)C)nc2CCCC(N)=O)c1	-6.23%

SMILES	cytotoxicity at 70.5 h
Cc1cc(CNCC2CNc3ccnn3C2)no1 (configuration not stated)	19.3%
CC(C)OCCC(=O)Nc1ncn(CC(=O)N2CCCCCC2)n1	-1.46%
CN(C)CCn1ccnc1C1CCCN(c2nccc3ccccc23)C1 (configuration not stated)	1.12%
Cc1ccc(OCCC(=O)N2CCOCC2c2ncon2)cc1C (configuration not stated)	-7.26%
Cc1cccc(COc2ccc(C(C)N)cc2)c1 (configuration not stated)	-4.64%
CCn1cc(-c2nccnc2C2CCCN(C(C)=O)C2)cn1 (configuration not stated)	-4.58%
CO[C@@H]1CC[C@@H](N(C)C(=O)COc2ccc(F)cc2)[C@H]1O	-28.5%
CC(C)(C)c1ncc(C(=O)N2CCN(C(=O)c3ccc[nH]3)CC2)c(O)n1	-2.76%
CCN(Cc1noc(CC(C)C)n1)Cc1ccccc1OCC(=O)O	-2.84%
CN(Cc1ccsc1)C(=O)c1cc2c([nH]c1=O)CCC2	-4.53%
COCCN1CCCn2c(nc(Cn3cncn3)cc2=O)C1	19.3%
COC(=O)c1ccc2ccn(CC3CCNC3)c(=O)c2c1 (configuration not stated)	-1.63%
O=C(NCCc1cc(F)ccc1F)NC(CO)c1ccccc1 (configuration not stated)	19.3%
c1cc(C2CCCN2CC2CC2)n[nH]1 (configuration not stated)	-9.13%
CCS(=O)(=O)N1CCCC(c2nc3ccccc3n2C(C)C)C1 (configuration not stated)	-3.94%
COc1cc(N2CC3(CCN(c4ncccn4)C3)C2)ncn1	-9.27%
Cc1cc(C)n(-c2cccc(NC(=O)N3CCC[C@@H]3CO)c2)n1	-16%
CC(C)Oc1ccc2c(NC(=O)[C@H](C)O)nn(CC(F)(F)F)c2c1	-16.3%
CCCn1cc(NC(=O)c2ccc(S(=O)(=O)CC)cc2)ccc1=O	22.4%
CCc1nc(C2CCCN2C(=O)CCn2cncn2)no1 (configuration not stated)	-21.3%
COc1cc(NC(=O)NCc2cc(C)oc2C)cc(OC)c1	-5.36%
COCCC(=O)N1CCCN(Cc2nccn2C(C)C)CC1	-1.06%
CC(=O)N1CC2(CCN(C(=O)N(C)C)CC2)c2cc(C)ccc21	5.58%

SMILES	cytotoxicity at 70.5 h
O=C(NC[C@H]1C[C@@H]2CCN1C[C@@H]2CN1CCOCC1)Nc1ccsc1	-12.4%
CC(C)c1ncc2c(n1)CN(Cc1nc(-c3cccs3)no1)CC2	-11.9%
COC(=O)NCCC(=O)NC(C)Cc1ccccc1Br (configuration not stated)	-7.4%
CCc1nnsc1C(=O)NCCn1nc2ccccn2c1=O	31.6%
c1ccc(COC[C@@H]2CCC[C@]23CN(Cc2nccs2)CCO3)nc1	5.78%
O=C(NCCc1nccs1)[C@H](c1ccccc1)n1cnnn1	-5.33%
CN(C)[C@@H]1CN(C(=O)c2cc3cccc(F)c3[nH]2)C[C@H]1O	-2.67%
CC(C)c1ccsc1C(=O)N1CCCN(Cc2cscn2)CC1	15.1%
O=C(c1cccnc1SCc1ccccc1)N1CCOCC1	0.0391%
Cc1noc(C)c1CNC(=O)Nc1ccc(N2CCOC(C)C2)cc1 (configuration not stated)	-13.8%
Cc1cc(C(=O)N2CCC3(CCN3Cc3ccc(F)cc3)C2)no1 (configuration not stated)	-3.92%
Cc1ccccc1-n1ccnc1S(=O)(=O)Cc1nsc(N(C)C)n1	-11%
CN1C(=O)CCc2cc(NS(=O)(=O)Cc3cccc(F)c3)ccc21	-8.13%
Cc1cccc(C(=O)N2C[C@@H]3CC[C@H](Oc4cccc(F)c4)[C@@H]3C2)n1	-5.82%
CCc1nc(C2CCCN(C(=O)c3ccc(OC)cc3)C2)no1 (configuration not stated)	0.812%
CC1CN(Cc2nccn2C)CCN1c1ccc2nncn2n1 (configuration not stated)	6.8%
c1ccc(-c2nc(SCc3nnc(C4CC4)o3)n[nH]2)nc1	-4.88%
N[C@@H](Cc1c[nH]cn1)C(=O)N1CCC(Oc2ccc(F)cc2)CC1	-4.52%
COc1ccccc1-n1cc(C(=O)NCCCn2ccnn2)cn1	-8.35%
Cc1noc(C)c1-c1ccc(C2CCCN2C(=O)c2ccncn2)nc1 (configuration not stated)	27.1%

Source: ChEMBL document CHEMBL3507680, “University of Dundee, Gates Library screen for HepG2 cell viability”
